Here are results for ten compounds from US11396495B2, “Amine compound for inhibiting SSAO/VAP-1 and use thereof” (SUNSHINE LAKE PHARMA CO., LTD., priority 2017, dated 2022).

Each structure is given as a SMILES string. Where a name gives a salt, the structure may show the parent alone.

In one data set the target is human recombinant DAO (Homo sapiens (Human), UniProt P19801). Put plainly: Determination of selective inhibitory for DAO (diamine oxidase). To be noted: human recombinant DAO, 1,4-diaminobutane substrate. It counts as biochemical. How it is done:
3. Determination of Selective Inhibitory for DAO (Diamine Oxidase)
Test purpose: The following methods can be used to determine the selective inhibitory activity of the compounds of the invention for DAO.
human recombinant DAO (Recombinant Human ABP-1/DAO) purchased from R&D, Cat. No. 8298-AO;
The test compound was dissolved in DMSO and diluted to 6 concentrations in 5-fold serial dilution. In 384 well plates, 24 μL of human recombinant DAO (1 μg/mL) was added to each well. 1 μL Of test compounds with different concentrations were added to each well containing human recombinant DAO and incubated at 37° C. for 30 min. After 30 min incubation, 25 μL of Amplex® Red Hydrogen PeroxidePeroxidase Assay Kit (containing a reaction mixture of 100 μM Amplex® Red and 0.2 U/mL HRP) containing 1 M 1,4-Diaminobutane dihydrochloride was added to the corresponding well, and incubated at 37° C. and dark for 30 min. After 30 min, the relative fluorescence unit (RFU) was read by using PHERAstar FSX enzyme marker of BMG LABTECH at 540 nm excitation and 580 nm emission. The curve was drawn by using the graph pad prism 5 software, and the IC50 value was calculated. The results were shown in table 3, wherein the compound listed in table 3 is the compound in the preparation examples with the same compound number: […]

Data set [1] in a line: Pharmacokinetics in SD rats after intravenous or oral administration. It counts as in vivo. Conditions: male, rat, plasma; for Vd: read-out: Vss. On the procedure:
4. Pharmacokinetic Activities of the Compounds of the Invention
Test purpose: The following methods were used to evaluate the pharmacokinetics of the compound of the invention.
SD rats: male, 180-220 g, 7-8 weeks old, purchased from Hunan SJA Laboratory Animal Co., Ltd.
Test compound was prepared by dissolving in a mixture of 5% DMSO+5% KolliphorHS15+90% Saline and adjusted according to the dissolution of each compound, so that the compound can be completely dissolved.
The samples were processed by liquid-liquid extraction, separated by chromatography, quantitatively analyzed by multiple reaction ion monitoring (MRM) on triple quadrupole tandem mass spectrometer, and the results were calculated by using quantitative software.
Taking 30 μL of plasma sample precisely, adding 250 μL of internal standard, and vortex mixing uniformly. Extracting once with 1 mL MTBE, centrifugating at 13000 rpm and 4° C. for 2 min, taking 800 μL of supernatant, and evaporating it in a 96-well termovap sample concentrator, dissolving the residue with 150 μL methanol/water=50/50, vortex mixing, injecting 8 μL.
Determining the content of different compounds in the plasma of rats after the administration by using LC/MS/MS method.
Pharmacokinetic parameters were calculated using a noncompartmental method by WinNonLin 6.1 software.
The pharmacokinetic data of the compounds of the invention were listed in table 4, wherein the compound listed in table 4 is the compound in the preparation examples with the same compound number: […]

Data set [2] deals with rat adipose tissue homogenate SSAO/VAP-1 (Rattus norvegicus (Rat), UniProt O08590). Put plainly: Determination of inhibitory activity of rat adipose tissue homogenate SSAO/VAP-1. It counts as biochemical, Sprague Dawley rats. To be noted: rat abdominal adipose tissue homogenate, pargyline pretreated, 37° C. How it is done: 2. Determination of Inhibitory Activity of Rat Adipose Tissue Homogenate SSAO/VAP-1
rat adipose tissue homogenate SSAO/VAP-1, sequence (O08590 whole entry): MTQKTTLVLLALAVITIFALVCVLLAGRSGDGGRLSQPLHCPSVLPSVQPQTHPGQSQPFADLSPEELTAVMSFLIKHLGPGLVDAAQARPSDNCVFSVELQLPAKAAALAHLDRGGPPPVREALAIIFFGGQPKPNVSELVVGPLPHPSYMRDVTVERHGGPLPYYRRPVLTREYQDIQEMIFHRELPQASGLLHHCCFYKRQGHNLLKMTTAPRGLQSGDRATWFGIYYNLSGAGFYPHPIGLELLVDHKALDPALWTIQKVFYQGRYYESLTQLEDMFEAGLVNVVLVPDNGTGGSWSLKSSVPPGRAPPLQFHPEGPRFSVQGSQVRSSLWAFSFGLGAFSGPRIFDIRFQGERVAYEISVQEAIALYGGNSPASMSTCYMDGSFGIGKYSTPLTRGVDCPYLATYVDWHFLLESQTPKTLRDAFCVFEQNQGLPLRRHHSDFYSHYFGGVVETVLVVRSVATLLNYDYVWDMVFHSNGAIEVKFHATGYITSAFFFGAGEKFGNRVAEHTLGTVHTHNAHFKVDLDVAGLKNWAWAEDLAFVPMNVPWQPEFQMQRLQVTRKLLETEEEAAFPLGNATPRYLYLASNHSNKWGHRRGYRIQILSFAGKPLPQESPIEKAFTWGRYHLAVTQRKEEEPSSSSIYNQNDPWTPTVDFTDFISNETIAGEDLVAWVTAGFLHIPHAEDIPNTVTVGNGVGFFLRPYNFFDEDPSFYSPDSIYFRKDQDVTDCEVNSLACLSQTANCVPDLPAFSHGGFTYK
Test purpose: The following methods can be used to determine the inhibitory activity of the compounds of the invention for rat adipose tissue homogenate SSAO/VAP-1.
The abdominal fat removed from Sprague Dawley rats was a tissue rich in SSAO/VAP-1. 5 mL Of HES buffer per gram of rat abdominal adipose tissue (20 mM Sodium N-piperazine-N-ethanesulfonate, 1 mm EDTA, 250 mM sucrose, 1×PMSF and 100 mM (3-glycerol phosphate disodium salt hydrate, pH 7.4) was added for homogenizing. The fat tissue was homogenized for 3 min by using Bertin precellys 24 multi-functional sample homogenizer of Bertin technologies, and the fat tissue homogenate was centrifuged for 10 min at 4° C. and 20000 g, and the middle transparent supernatant was taken. The supernatant was incubated with 0.5 mm Pargyline hydrochloride dissolved in HES buffer at 37° C. for 30 min. After 30 min incubation, 25 μl of fat tissue supernatant was added to the standard 96 well plate. The test compound was dissolved in DMSO and diluted to 6 concentrations. 25 μL Of the test compounds with different concentrations was added to each well containing the supernatant of fat tissue and incubated at 37° C. for 30 min. After incubation, 50 μL of the reaction mixture containing 80 μM benzylamine hydrochloride (containing 100 μM Amplex® red and 0.2 U/mL HRP, Amplex® Red Hydrogen peroxideperoxidase assay kit) was added to the corresponding wells and incubated at 37° C. for 30 min. After 30 min, the relative fluorescence unit (RFU) was read by using PHERAstar FSX enzyme marker of BMG LABTECH at 540 nm excitation and 580 nm emission. The curve was drawn by using the graph pad prism 5 software, and the IC50 value was calculated. The results were shown in table 2, wherein the compound listed in table 2 is the compound in the preparation examples with the same compound number: Table 2: inhibitory activity of the compound of examples of the invention for SSAO/VAP-1 of fat tissue homogenate

Data set [3] has as its target Human recombinant SSAO/VAP-1 (Homo sapiens (Human), UniProt Q16853). The data set can be described thus: Determination of inhibitory activity of human recombinant SSAO/VAP-1 (Amplex Red, benzylamine). Conditions: human recombinant SSAO/VAP-1, 30 min preincubation at room temperature; read-out: SSAO/VAP-1(Human recombinant protein) IC50/nM. The data set is classed as biochemical. How it is done: 1. Determination of Inhibitory Activity of Human Recombinant SSAO/VAP-1
Test purpose: The following methods can be used to determine the inhibitory activity of the compounds described in the examples of the invention for human recombinant SSAO/VAP-1.
Human recombinant SSAO/VAP-1 (VAP-1, human) purchased from Sigma, Cat. No. SRP6241;
The test compound was dissolved in DMSO and diluted to 10 concentrations in 4-fold serial dilution. In 384 well plates, 25 μL of human recombinant SSAO/VAP-1 (1.6 μg/ml) was added to each well. 100 nL of test compounds with different concentrations were added to each well containing human recombinant SSAO/VAP-1 and incubated at room temperature for 30 min. After 30 min incubation, 25 μl of Amplex® red monoamine oxidase assay kit (containing a reaction mixture of 200 μm Amplex Red reagent, 1 U/ml HRP and 1 mm benzylamine hydrochloride) was added to the corresponding well, and incubated at room temperature and dark for 60 min. After 60 min, the relative fluorescence unit (RFU) was read by using PerkinElmer's Envision at 530-560 nm excitation and 590 nm emission. The curve was drawn by using the graph pad prism 5 software, and the IC50 value was calculated. The results were shown in table 1, wherein the compound listed in table 1 is the compound in the preparation examples with the same compound number: […]

Human recombinant SSAO/VAP-1, sequence (Q16853 whole entry): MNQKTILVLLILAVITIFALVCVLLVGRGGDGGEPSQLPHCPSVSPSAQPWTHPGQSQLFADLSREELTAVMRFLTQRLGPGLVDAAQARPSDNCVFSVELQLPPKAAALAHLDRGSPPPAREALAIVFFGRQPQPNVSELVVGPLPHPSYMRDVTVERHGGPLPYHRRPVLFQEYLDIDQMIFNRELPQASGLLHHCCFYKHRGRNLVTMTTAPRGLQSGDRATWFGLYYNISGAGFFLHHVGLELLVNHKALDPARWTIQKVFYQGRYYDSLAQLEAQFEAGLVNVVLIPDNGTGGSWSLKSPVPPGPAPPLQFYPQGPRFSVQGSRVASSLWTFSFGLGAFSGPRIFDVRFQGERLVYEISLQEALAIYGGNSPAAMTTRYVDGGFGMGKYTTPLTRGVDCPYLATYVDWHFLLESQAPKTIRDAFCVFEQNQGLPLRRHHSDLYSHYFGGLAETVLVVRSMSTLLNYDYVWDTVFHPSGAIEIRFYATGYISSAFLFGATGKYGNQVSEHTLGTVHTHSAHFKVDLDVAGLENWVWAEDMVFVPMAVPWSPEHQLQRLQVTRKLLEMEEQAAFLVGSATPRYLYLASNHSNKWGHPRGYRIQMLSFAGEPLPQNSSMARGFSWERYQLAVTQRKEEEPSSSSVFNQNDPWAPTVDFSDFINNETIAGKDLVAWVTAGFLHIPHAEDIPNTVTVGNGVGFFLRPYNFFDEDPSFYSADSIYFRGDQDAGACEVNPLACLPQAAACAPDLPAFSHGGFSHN
human recombinant DAO, sequence (P19801 20-751): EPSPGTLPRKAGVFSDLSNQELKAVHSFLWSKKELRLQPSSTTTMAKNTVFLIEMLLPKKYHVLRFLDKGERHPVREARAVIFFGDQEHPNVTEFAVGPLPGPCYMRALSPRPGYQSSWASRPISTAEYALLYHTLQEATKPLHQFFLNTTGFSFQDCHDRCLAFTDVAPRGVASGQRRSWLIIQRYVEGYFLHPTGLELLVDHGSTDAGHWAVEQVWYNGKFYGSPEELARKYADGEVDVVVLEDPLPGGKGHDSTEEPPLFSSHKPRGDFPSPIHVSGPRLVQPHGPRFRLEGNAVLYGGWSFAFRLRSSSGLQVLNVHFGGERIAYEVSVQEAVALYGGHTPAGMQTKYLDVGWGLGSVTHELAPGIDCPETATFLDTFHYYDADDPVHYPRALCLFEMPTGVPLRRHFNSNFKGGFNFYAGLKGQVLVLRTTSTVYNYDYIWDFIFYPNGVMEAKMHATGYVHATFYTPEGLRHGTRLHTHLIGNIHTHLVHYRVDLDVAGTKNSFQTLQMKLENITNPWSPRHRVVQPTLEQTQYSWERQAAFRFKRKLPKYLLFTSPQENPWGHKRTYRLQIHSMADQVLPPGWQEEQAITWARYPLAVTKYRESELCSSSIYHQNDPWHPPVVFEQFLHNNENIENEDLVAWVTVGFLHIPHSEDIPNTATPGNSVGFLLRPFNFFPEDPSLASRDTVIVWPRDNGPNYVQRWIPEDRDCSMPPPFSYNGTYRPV

In the case of `NC/C(=C\F)COc1ccc2c(c1)CCNC2=O` [Compound 3, 6-[(E)-2-(aminomethyl)-3-fluoro-allyloxy]-3,4-dihydro-2H-isoquinolin-1-one hydrochloride], on human recombinant DAO, the IC50 was greater than 0.1 µM.
On to `CCOC(=O)CN1CCc2cc(OC/C(=C/F)CN)ccc2C1=O` [Compound 12, ethyl 2-[6-[(E)-2-(aminomethyl)-3-fluoro-allyloxy]-1-oxo-3,4-dihydroisoquinolin-2-yl]acetate hydrochloride], for which, in data set [1] (iv, I.V., 1 mg/kg), the AUC(0-inf) was 843 ng·h/mL, the AUC(0-t) was 837 ng·h/mL, the concentration peaked (Cmax) at 946 ng/mL and the time to peak (Tmax) was determined as 15 min. In addition, in data set [1] (iv, I.V., 1 mg/kg), the clearance is 330 mL/min/kg, the half-life is 56.2 min and the Vd is 1.07 L/kg. Further, in data set [1] (po, P.O., 5 mg/kg), the total exposure AUC(0-inf) was determined as 2900 ng·h/mL, the AUC(0-t) came out at 2890 ng·h/mL, the concentration peaked (Cmax) at 2190 ng/mL and the Tmax was 25 min. For the same compound, in data set [1] (po, P.O., 5 mg/kg), the half-life was 57.5 min. Also, the IC50 in data set [2] was 10.1 nM. For the same compound, at human recombinant DAO, the IC50 is greater than 0.1 µM. The IC50 in data set [3] came to 0.14 nM.
Turning to `NC/C(=C\F)COc1ccc2c(c1)C(=O)NCC2` [Compound 14, 7-[(E)-2-(aminomethyl)-3-fluoro-allyloxy]-3,4-dihydro-2H-isoquinolin-1-one hydrochloride], the IC50 at human recombinant DAO was greater than 1 µM.
As for `NC/C(=C\F)COc1ccc2c(c1)CCN(C1CCOCC1)C2=O` [Compound 16, 6-[(E)-2-(aminomethyl)-3-fluoro-allyloxy]-2-(tetrahydropyran-4-yl)-3,4-dihydroisoquinolin-1-one hydrochloride], the values for the IC50 in data set [2] and in data set [3] were 6.01 nM and 0.22 nM, respectively.
Regarding `NC/C(=C/F)COc1ccc2c(c1)CCN(C1CCOCC1)C2=O` [Compound 17, 6-[(Z)-2-(aminomethyl)-3-fluoro-allyloxy]-2-(tetrahydropyran-4-yl)-3,4-dihydroisoquinolin-1-one hydrochloride], the IC50 turned out to be 5.03 nM in data set [2] and 0.58 nM in data set [3].
The matching figures for `COCCN1CCc2cc(OC/C(=C/F)CN)ccc2C1=O` [Compound 18, 6-[(E)-2-(aminomethyl)-3-fluoro-allyloxy]-2-(2-methoxyethyl)-3,4-dihydroisoquinolin-1-one hydrochloride]: 6.13 nM and 0.48 nM.
The matching figures for `COCCN1CCc2cc(OC/C(=C\F)CN)ccc2C1=O` [Compound 19, 6-[(Z)-2-(aminomethyl)-3-fluoro-allyloxy]-2-(2-methoxyethyl)-3,4-dihydro isoquinolin-1-one hydrochloride]: 5.7 nM and 1 nM.
In the case of `Cc1ccc(N2CCc3cc(OC/C(=C/F)CN)ccc3C2=O)cc1` [Compound 24, 6-[(E)-2-(aminomethyl)-3-fluoro-allyloxy]-2-(p-methylphenyl)-3,4-dihydroisoquinolin-1-one hydrochloride], in data set [1] (iv, I.V., 1 mg/kg), the total exposure AUC(0-inf) worked out at 450 ng·h/mL, the exposure AUC(0-t) stood at 364 ng·h/mL, the Cmax was 144 ng/mL and the time to peak (Tmax) was 4.98 min. Also, in data set [1] (iv, I.V., 1 mg/kg), the clearance was 617 mL/min/kg, the half-life is 179 min and the Vd was 9.19 L/kg. Also, in data set [1] (po, P.O., 5 mg/kg), the AUC(0-inf) was found to be 5320 ng·h/mL, the AUC(0-t) was found to be 5280 ng·h/mL, the highest level (Cmax) was 569 ng/mL and the Tmax is 150 min. Moreover, in data set [1] (po, P.O., 5 mg/kg), the half-life is 207 min. Moreover, on human recombinant DAO, the IC50 was greater than 0.1 µM. Moreover, in data set [3], the IC50 came out at 1.16 nM.
Regarding `NC/C(=C/F)COc1ccc2c(c1)CCNS2(=O)=O` [Compound 33, (E)-2-[(1,1-dioxo-3,4-dihydro-2H-benzo[e][1,2]thiazin-6-yl)oxymethyl]-3-fluoro-prop-2-enyl-1-amine hydrochloride], the IC50 turned out to be 4.88 nM in data set [2] and 1.98 nM in data set [3].
In the case of `Cc1ccccc1N1CCc2cc(OC/C(=C/F)CN)ccc2C1=O` [Compound 46, 6-[(E)-2-(aminomethyl)-3-fluoro-allyloxy]-2-o-methylphenyl-3,4-dihydroisoquinolin-1-one hydrochloride], the IC50 on human recombinant DAO is greater than 0.1 µM.

In general, AUC(0-inf) refers to the area under the concentration-time curve extrapolated to infinity. A higher AUC(0-inf) goes with more exposure. By AUC(0-t) is commonly meant the area under the concentration-time curve up to a stated or last time point. One may read the Cmax as the peak of the concentration-time curve. For orientation: Tmax means the time from dosing to the highest level. For orientation: half-life means the time needed for the level to fall by half in the phase considered. A higher half-life goes with slow loss.
